Experimental data: ChEMBL document CHEMBL1201862, “PubChem BioAssay data set” (2004)
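How tested: cells in 96-well plates exposed to compound for 48 hours at five concentrations. The concentration for 50% growth inhibition is given as GI50.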 The source made the active and inactive calls. Cut-off read from the data, not from the text of the source: active = GI50 up to about 1.1 µM and inactive = higher.

What was measured:
Assay in all cases: inhibition of tumour cell growth, NCI panel, 48 h
HCC 2998 = tested on: HCC 2998
HCT-15 = tested on: HCT-15
PC-3 = tested on: PC-3
Hs-578T = tested on: Hs-578T
EKVX = tested on: EKVX
SF-295 = tested on: SF-295
SW-620 = tested on: SW-620
CCRF-CEM = tested on: CCRF-CEM
ACHN = tested on: ACHN
SF-268 = tested on: SF-268
NCI-H23 = tested on: NCI-H23
OVCAR-4 = tested on: OVCAR-4
UO-31 = tested on: UO-31
TK-10 = tested on: TK-10
HT-29 = tested on: HT-29
KM12 = tested on: KM12
SF-539 = tested on: SF-539
IGROV-1 = tested on: IGROV-1
LOX IMVI = tested on: LOX IMVI
OVCAR-5 = tested on: OVCAR-5
NCI/ADR-RES = tested on: NCI/ADR-RES
NCI-H522 = tested on: NCI-H522
HL-60 = tested on: HL-60
T47D = tested on: T47D
DU-145 = tested on: DU-145
SN12C = tested on: SN12C
SK-MEL-5 = tested on: SK-MEL-5
OVCAR-8 = tested on: OVCAR-8
COLO 205 = tested on: COLO 205
RXF 393 = tested on: RXF 393
UACC-62 = tested on: UACC-62
NCI-H460 = tested on: NCI-H460
CAKI-1 = tested on: CAKI-1
U-251 = tested on: U-251
A498 = tested on: A498
SK-MEL-28 = tested on: SK-MEL-28
MCF7 = tested on: MCF7
K562 = tested on: K562
HCT-116 = tested on: HCT-116
OVCAR-3 = tested on: OVCAR-3
M14 = tested on: M14
MDA-MB-435 = tested on: MDA-MB-435
SK-OV-3 = tested on: SK-OV-3
SNB-19 = tested on: SNB-19
SNB-75 = tested on: SNB-75
Malme-3M = tested on: Malme-3M
NCI-H226 = tested on: NCI-H226
HOP-62 = tested on: HOP-62
MOLT-4 = tested on: MOLT-4
A549 = tested on: A549
MDA-MB-231 = tested on: MDA-MB-231
RPMI-8226 = tested on: RPMI-8226
MDA-N = tested on: MDA-N
SK-MEL-2 = tested on: SK-MEL-2
HOP-92 = tested on: HOP-92
SR = tested on: SR
UACC-257 = tested on: UACC-257
786-0 = tested on: 786-0

## N#CCCC1C(C#N)C2(Cl)CC1(Cl)C(Cl)=C2Cl (stereo unspecified)
HCC 2998
  GI50: > 10 µM (inactive)
HCT-15
  GI50: > 10 µM
PC-3
  GI50: > 10 µM (inactive)
Hs-578T
  GI50: > 10 µM (inactive)
EKVX
  GI50: > 10 µM (inactive)
SF-295
  GI50: > 10 µM (inactive)
SW-620
  GI50: > 10 µM (inactive)
CCRF-CEM
  GI50: > 10 µM (inactive)
ACHN
  GI50: > 10 µM (inactive)
SF-268
  GI50: > 10 µM (inactive)
NCI-H23
  GI50: > 10 µM (inactive)
OVCAR-4
  GI50: > 10 µM (inactive)
UO-31
  GI50: > 10 µM (inactive)
TK-10
  GI50: > 10 µM (inactive)
HT-29
  GI50: > 10 µM (inactive)
KM12
  GI50: > 10 µM (inactive)
SF-539
  GI50: > 10 µM (inactive)
IGROV-1
  GI50: > 10 µM (inactive)
LOX IMVI
  GI50: > 10 µM (inactive)
OVCAR-5
  GI50: > 10 µM (inactive)
NCI/ADR-RES
  GI50: > 10 µM (inactive)
NCI-H522
  GI50: 3.59 µM (inactive)
HL-60
  GI50: > 10 µM (inactive)
T47D
  GI50: > 10 µM (inactive)
DU-145
  GI50: > 10 µM (inactive)
SN12C
  GI50: > 10 µM (inactive)
SK-MEL-5
  GI50: > 10 µM (inactive)
OVCAR-8
  GI50: > 10 µM (inactive)
COLO 205
  GI50: > 10 µM (inactive)
RXF 393
  GI50: > 10 µM (inactive)
UACC-62
  GI50: > 10 µM (inactive)
NCI-H460
  GI50: > 10 µM (inactive)
CAKI-1
  GI50: > 10 µM (inactive)
U-251
  GI50: > 10 µM (inactive)
A498
  GI50: > 10 µM (inactive)
SK-MEL-28
  GI50: > 10 µM (inactive)
MCF7
  GI50: > 10 µM (inactive)
K562
  GI50: > 10 µM (inactive)
HCT-116
  GI50: > 10 µM (inactive)
OVCAR-3
  GI50: > 10 µM (inactive)
M14
  GI50: > 10 µM (inactive)
MDA-MB-435
  GI50: > 10 µM (inactive)
SK-OV-3
  GI50: > 10 µM (inactive)
SNB-19
  GI50: > 10 µM (inactive)
SNB-75
  GI50: > 10 µM (inactive)
Malme-3M
  GI50: > 10 µM (inactive)
NCI-H226
  GI50: > 10 µM (inactive)
HOP-62
  GI50: > 10 µM (inactive)
MOLT-4
  GI50: > 10 µM (inactive)
A549
  GI50: > 10 µM (inactive)
MDA-MB-231
  GI50: > 10 µM (inactive)
RPMI-8226
  GI50: > 10 µM (inactive)
MDA-N
  GI50: > 10 µM (inactive)
SK-MEL-2
  GI50: > 10 µM (inactive)

## CCOC(=O)c1c(C)n(Cc2ccccc2)c(=O)c2ccccc2c(=O)c2c(=O)ccc(=O)c1=2
HCC 2998
  GI50: 38.5 µM (inactive)
HCT-15
  GI50: 34.8 µM
PC-3
  GI50: 39.7 µM (inactive)
Hs-578T
  GI50: > 100 µM (inactive)
EKVX
  GI50: > 100 µM (inactive)
SF-295
  GI50: > 100 µM (inactive)
SW-620
  GI50: 33.3 µM (inactive)
CCRF-CEM
  GI50: 42.1 µM (inactive)
ACHN
  GI50: 30.7 µM (inactive)
SF-268
  GI50: 57.7 µM (inactive)
NCI-H23
  GI50: 62.8 µM (inactive)
OVCAR-4
  GI50: 45 µM (inactive)
UO-31
  GI50: 17.9 µM (inactive)
TK-10
  GI50: 29.1 µM (inactive)
HT-29
  GI50: 42.8 µM (inactive)
KM12
  GI50: > 100 µM (inactive)
SF-539
  GI50: 48.2 µM (inactive)
IGROV-1
  GI50: 22.3 µM (inactive)
LOX IMVI
  GI50: 25.2 µM (inactive)
HOP-92
  GI50: 14.9 µM (inactive)
OVCAR-5
  GI50: > 100 µM (inactive)
NCI/ADR-RES
  GI50: 92.7 µM (inactive)
NCI-H522
  GI50: 23.9 µM (inactive)
HL-60
  GI50: > 100 µM (inactive)
T47D
  GI50: 30.6 µM (inactive)
DU-145
  GI50: > 100 µM (inactive)
SN12C
  GI50: 41 µM (inactive)
SK-MEL-5
  GI50: > 100 µM (inactive)
SR
  GI50: 30.8 µM (inactive)
OVCAR-8
  GI50: > 100 µM (inactive)
COLO 205
  GI50: 43.4 µM (inactive)
RXF 393
  GI50: 23.8 µM (inactive)
UACC-62
  GI50: > 100 µM (inactive)
NCI-H460
  GI50: > 100 µM (inactive)
CAKI-1
  GI50: 34.7 µM (inactive)
UACC-257
  GI50: > 100 µM (inactive)
U-251
  GI50: > 100 µM (inactive)
A498
  GI50: > 100 µM (inactive)
SK-MEL-28
  GI50: 55.7 µM (inactive)
K562
  GI50: 43.3 µM (inactive)
HCT-116
  GI50: 18.2 µM (inactive)
OVCAR-3
  GI50: 34.1 µM (inactive)
M14
  GI50: 39.1 µM (inactive)
MDA-MB-435
  GI50: > 100 µM (inactive)
786-0
  GI50: 27 µM (inactive)
SK-OV-3
  GI50: > 100 µM (inactive)
SNB-19
  GI50: > 100 µM (inactive)
SNB-75
  GI50: > 100 µM (inactive)
Malme-3M
  GI50: 19.9 µM (inactive)
NCI-H226
  GI50: > 100 µM (inactive)
HOP-62
  GI50: > 100 µM (inactive)
MOLT-4
  GI50: 54.7 µM (inactive)
A549
  GI50: > 100 µM (inactive)
MDA-MB-231
  GI50: 65 µM (inactive)
RPMI-8226
  GI50: 31.2 µM (inactive)
MDA-N
  GI50: 73.8 µM (inactive)
SK-MEL-2
  GI50: > 100 µM (inactive)
